Assay results published in patent US10294202B2, “Pyrrolidinones as herbicides” (FMC Corporation, priority 2013, dated 2019).
Read-outs that look alike come from different tables or passages of the source.

Key:
Assay in all cases: Test A pre-/postemergence herbicide test
[1] = system: barnyardgrass; format: in vivo, Echinochloa crus-galli; settings: for pest or weed control at 1000 g/ha: Echinochloa crus-galli, 240 h, 1000 g ai/ha, read-out: Plant response rating, Barnyardgrass
Source text: (§1) Seeds of plant species selected from bamyardgrass (Echinochloa crus-galli), kochia (Kochia scoparia), ragweed (common ragweed, Ambrosia elatior), ryegrass, Italian (Italian ryegrass, Lolium multiflorum), crabgrass, large (large crabgrass Digitaria sanguinalis), giant foxtail (Setaria faberii), morningglory (Ipomoea spp.), pigweed (Amaranthus retroflexus), velvetleaf (Abutilon theophrasti), wheat (Triticum aestivum), and corn (Zea mays) were planted into a blend of loam soil and sand and treated preemergence with a directed soil spray using test chemicals formulated in a non-phytotoxic solvent mixture which included a surfactant. At the same time, plants selected from these crop and weed species and also blackgrass (Alopecurus myosuroides), and galium (catchweed bedstraw, Galium aparine) were planted in pots containing the same blend of loam soil and sand and treated with postemergence applications of test chemicals formulated in the same manner. Plants ranged in height from 2 to 10 cm and were in the one- to two-leaf stage for the postemergence treatment. Treated plants and untreated controls were maintained in a greenhouse for approximately 10 days, after which time all treated plants were compared to untreated controls and visually evaluated for injury. Plant response ratings, summarized in Table A, are based on a 0 to 100 scale where 0 is no effect and 100 is complete control. A dash (-) response means no test result.

[2] = system: crabgrass, large; format: in vivo, Digitaria sanguinalis; settings: for pest or weed control at 1000 g/ha: Digitaria sanguinalis, 240 h, 1000 g ai/ha, read-out: Plant response rating, Crabgrass, Large
In short: (§2)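 Seeds in loam–sand blend received preemergence directed soil spray; separately, plants 2–10 cm at one- to two-leaf stage received postemergence spray, both with test chemicals in non-phytotoxic solvent with surfactant. After ~10 days in greenhouse, injury rated visually against untreated controls, 0 (no effect) to 100 (complete control).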

[3] = system: giant foxtail; format: in vivo, Setaria faberii; settings: for pest or weed control at 1000 g/ha: Setaria faberi, 240 h, 1000 g ai/ha, read-out: Plant response rating, Foxtail, Giant
In short: as §2

[4] = system: morningglory; format: in vivo, Ipomoea spp.; settings: for pest or weed control at 1000 g/ha: Ipomoea, 240 h, 1000 g ai/ha, read-out: Plant response rating, Morningglory
In short: as §2

[5] = system: pigweed; format: in vivo, Amaranthus retroflexus; settings: for pest or weed control at 1000 g/ha: Amaranthus retroflexus, 240 h, 1000 g ai/ha, read-out: Plant response rating, Pigweed
Source text: as §1

[6] = system: velvetleaf; format: in vivo, Abutilon theophrasti; settings: for pest or weed control at 1000 g/ha: Abutilon theophrasti, 240 h, 1000 g ai/ha, read-out: Plant response rating, Velvetleaf
Source text: as §1

[7] = system: wheat; format: in vivo, Triticum aestivum; settings: for plant injury at 1000 g/ha: Triticum aestivum, 240 h, 1000 g ai/ha, read-out: Plant response rating, Wheat
Source text: as §1

[8] = system: corn; format: in vivo, Zea mays; settings: for Corn plant response rating (crop injury, 0 = no effect, 100 = complete kill) at 1000 g/ha: Zea mays, 240 h, 1000 g ai/ha
Source text: as §1

[9] = post-emergence, Postemergence, 0 to 100 scale (0 no effect, 100 complete control)
[10] = pre-emergence, Preemergence, visual rating on 0 to 100 scale (0 no effect, 100 complete control), approx. 10 days
[11] = Postemergence, 125 g ai/ha, 0 to 100 scale, 0 no effect, 100 complete control
[12] = Postemergence, 500 g ai/ha, 0 to 100 scale (0 no effect, 100 complete control)
[13] = Preemergence, 125 g ai/ha, visual rating on 0 to 100 scale (0 no effect, 100 complete control)
[14] = preemergence, 500 g ai/ha, 0 to 100 scale

Question: `O=C(Nc1ccccc1F)C1C(=O)N(O)CC1c1ccc(F)c(F)c1` (stereo not shown) [Compound 44, 4-(3,4-difluorophenyl)-N-(2-fluorophenyl)-1-hydroxy-2-oxo-3-pyrrolidinecarboxamide] was tested. Which pest or weed control at 1000 g/ha [1, 9] did it give?
Answer: Its pest or weed control at 1000 g/ha is 60%.

Question: And the pest or weed control at 1000 g/ha [1, 10]?
Answer: The pest or weed control at 1000 g/ha was 40%.

Question: What about the pest or weed control at 1000 g/ha [2, 9] of the same compound?
Answer: Its pest or weed control at 1000 g/ha is 50%.

Question: And the pest or weed control at 1000 g/ha [2, 10]?
Answer: Its pest or weed control at 1000 g/ha is 90%.

Question: What about the pest or weed control at 1000 g/ha [3, 9] of the same compound?
Answer: Its pest or weed control at 1000 g/ha is 30%.

Question: What about the pest or weed control at 1000 g/ha [3, 10] of the same compound?
Answer: Its pest or weed control at 1000 g/ha is 70%.

Question: And the pest or weed control at 1000 g/ha [4, 9]?
Answer: Its pest or weed control at 1000 g/ha is 0%.

Question: And the pest or weed control at 1000 g/ha [4, 10]?
Answer: The pest or weed control at 1000 g/ha was 0%.

Question: And the pest or weed control at 1000 g/ha [5, 9]?
Answer: The pest or weed control at 1000 g/ha was 0%.

Question: And the pest or weed control at 1000 g/ha [5, 10]?
Answer: Its pest or weed control at 1000 g/ha is 0%.

Question: And the pest or weed control at 1000 g/ha [6, 9]?
Answer: The pest or weed control at 1000 g/ha was 0%.

Question: What about the pest or weed control at 1000 g/ha [6, 10] of the same compound?
Answer: The pest or weed control at 1000 g/ha was 0%.

Question: What about the plant injury at 1000 g/ha [7, 9] of the same compound?
Answer: Its plant injury at 1000 g/ha is 0%.

Question: What about the plant injury at 1000 g/ha [7, 10] of the same compound?
Answer: The plant injury at 1000 g/ha was 0%.

Question: What about the Corn plant response rating (crop injury, 0 = no effect, 100 = complete kill) at 1000 g/ha [8, 9] of the same compound?
Answer: Its Corn plant response rating (crop injury, 0 = no effect, 100 = complete kill) at 1000 g/ha is 0%.

Question: And the Corn plant response rating (crop injury, 0 = no effect, 100 = complete kill) at 1000 g/ha [8, 10]?
Answer: The Corn plant response rating (crop injury, 0 = no effect, 100 = complete kill) at 1000 g/ha was 0%.

Question: `O=C1NCC(c2ccccc2)C1(Br)C(=O)Nc1ccc(Br)cc1F` (stereo not shown) [Compound 94] was tested. Which “Plant response rating, Barnyardgrass” value [1, 11] did it give?
Answer: Its value is 0.

Question: And the “Plant response rating, Barnyardgrass” value [1, 12]?
Answer: The value was 0.

Question: And the “Barnyardgrass plant response rating” value [1, 13]?
Answer: Its value is 0.

Question: What about the “Plant response rating, Barnyardgrass” value ([1]; preemergence, 500 g ai/ha, 0 to 100 scale (0 no effect, 100 complete control)) of the same compound?
Answer: Its value is 0.

Question: And the “Plant response rating, Crabgrass, Large” value [2, 11]?
Answer: Its value is 0.

Question: And the “Plant response rating, Crabgrass, Large” value [2, 12]?
Answer: Its value is 0.

Question: And the “Crabgrass, Large plant response rating” value [2, 13]?
Answer: The value was 0.

Question: What about the “Plant response rating, Crabgrass, Large” value [2, 14] of the same compound?
Answer: The value was 50.

Question: And the “Plant response rating, Foxtail, Giant” value [3, 11]?
Answer: The value was 0.

Question: And the “Plant response rating, Foxtail, Giant” value [3, 12]?
Answer: The value was 0.

Question: What about the “Foxtail, Giant plant response rating” value [3, 13] of the same compound?
Answer: Its value is 0.

Question: What about the “Plant response rating, Foxtail, Giant” value [3, 14] of the same compound?
Answer: The value was 0.

Question: What about the “Plant response rating, Morningglory” value [4, 11] of the same compound?
Answer: Its value is 0.

Question: What about the “Plant response rating, Morningglory” value [4, 12] of the same compound?
Answer: The value was 0.

Question: And the “Morningglory plant response rating” value [4, 13]?
Answer: The value was 0.

Question: What about the “Plant response rating, Morningglory” value [4, 14] of the same compound?
Answer: The value was 0.

Question: And the “Plant response rating, Pigweed” value [5, 11]?
Answer: The value was 0.

Question: And the “Plant response rating, Pigweed” value [5, 12]?
Answer: The value was 0.

Question: What about the “Pigweed plant response rating” value [5, 13] of the same compound?
Answer: The value was 0.

Question: And the “Plant response rating, Velvetleaf” value [6, 11]?
Answer: Its value is 0.

Question: What about the “Plant response rating, Velvetleaf” value [6, 12] of the same compound?
Answer: Its value is 0.

Question: What about the “Velvetleaf plant response rating” value [6, 13] of the same compound?
Answer: The value was 0.

Question: And the “Plant response rating, Wheat” value [7, 11]?
Answer: Its value is 0.

Question: What about the “Plant response rating, Wheat” value [7, 12] of the same compound?
Answer: Its value is 0.

Question: What about the “Wheat plant response rating” value [7, 13] of the same compound?
Answer: Its value is 0.

Question: And the “Plant response rating, Wheat” value [7, 14]?
Answer: The value was 0.

Question: What about the “Plant response rating, Corn” value [8, 11] of the same compound?
Answer: Its value is 0.

Question: What about the “Plant response rating, Corn” value [8, 12] of the same compound?
Answer: Its value is 0.

Question: And the “Corn plant response rating” value [8, 13]?
Answer: The value was 0.

Question: And the “Plant response rating, Corn” value [8, 14]?
Answer: Its value is 0.
